Assay results published in patent US20100144855A1, “APPLICATION OF SEDOISOPROSAN FOR PREPARATION OF MEDICINE FOR TREATMENT OF HUMAN HBeAg POSITIVE CHRONIC HEPATITIS B” (priority 2008, published 2010).

What was measured:
lymphocytes = conditions: sedoisoprosan associated with ConA and LPS, in vitro; cited from earlier work
HBsAg and HBeAg = conditions: animal experiments; cited from earlier work
[1] = animal experiments; cited from earlier work
hepatitis B virus = assay: clinical trial, curative effect in HBeAg positive chronic hepatitis B patients; type: in vivo, human
Procedure: The clinical trial protocol was designed according to the randomized, double-blind and controlled principle. The clinical efficacy and the safety of sedoisoprosan for therapy on human HBeAg positive chronic hepatitis B is defined according to the changes of vivo HBV-DNA level, ALT level, vital signs, blood routine indexes, blood biochemical indexes and thyroid function indexes before and after administration and the incidence of adverse events.
The clinical trials were performed on adult chronic hepatitis B patients who were HBsAg positive, HBeAg positive and HBsAb negative, with HBV-DNA levels more than 10^5 copies/ml and increased ALT.
Patients enrolled in the clinical trials must meet all the following criteria: signature of informed consent forms; age ≧18 years and ≦65 years; HBsAg positive, HBeAg positive and HBsAb negative for over 6 months; HBV-DNA level ≧10^5 copies/ml; increase in serum ALT level in 6 months before the first administration (ULN<ALT≦10×ULN for twice, wherein ALT≧2×ULN for once); negative pregnancy tests for women of child-bearing age in 24 hours before the first administration; and effective contraception measures used during the clinical trials and within 3 months after the therapy.
Since the effective doses of sedoisoprosan for reducing serum DHBV-DNA levels of ducks infected with hepatitis B virus was 200 mg/kg and 100 mg/kg (intraperitoneal injection, twice a day), doses of sedoisoprosan for the clinical trials may be between 200 mg and 800 mg (intravenous drip, once a day). […] For the purpose of the present invention, three doses of sedoisoprosan, 200 mg, 400 mg and 800 mg in 250ml 5% glucose solution (intravenous drip, within 60 mins), were used in the clinical trials.
According to the traditional treatment for chronic hepatitis B with interferon, patients enrolled in the clinical trials were administrated with sedoisoprosan once a day continuously for 4 weeks, then 3 times a week continuously for 8 weeks.
Three doses of sedoisoprosan, 200 mg, 400 mg and 800 mg respectively, were used for treatment. Mannite of 800 mg was used for negative control.
Patients enrolled in the clinical trials were randomly divided into four groups, i.e. negative control group (800 mg mannite), low dose group (200 mg sedoisoprosan with 600 mg mannite), median dose group (400 mg sedoisoprosan with 400 mg mannite) and high dose group (800 mg sedoisoprosan) respectively. Each patient was assigned with a CRF No. which was randomly generated by computer.
Baseline assessment was performed on the day of the first administration, which included medical examination, hematological examination, blood biochemical examination, thyroid function examination, ALT examination and quantitative detection of HBV-DNA. The medical examination included the examination of stature, avoirdupois, blood pressure and pulse rate. The hematological examination included the leucocyte, neutrophil, erythrocyte, platelet and haemoglobin counts, and the prothrombin time. The blood biochemical examination included the examination of serum potassium, sodium, GOT, total bilirubin, AKP, total protein, albumin, total cholesterol, triglyceride, urea nitrogen, creatinine and glucose.
The patients were followed up at the 1st, 2nd, 4th, 8th and 12th week of the treatment. The blood biochemical examination and the quantitative detection of HBV-DNA was performed at the 2nd, 4th, 8th and 12th week of the treatment, and the adverse events were recorded at the same time. The thyroid function examination was performed at the 12th week of the treatment.
The primary curative effect index was the virologic response rate at the 12th week of the treatment, i.e. the proportion of patients having HBV-DNA levels not more than 2×10^4 copies/ml or having a decline in HBV-DNA levels of 2 log10 copies/ml compared to the baseline value. […]

[2] = tested on: duck hepatitis B virus (DHBV); conditions: cited from earlier work
[3] = high dose group (800 mg sedoisoprosan), after 12 weeks' treatment
[4] = high dose group, after 12 weeks' treatment
[5] = low dose group (200 mg sedoisoprosan with 600 mg mannite), after 12 weeks' treatment
[6] = median dose group (400 mg sedoisoprosan with 400 mg mannite), after 12 weeks' treatment

CC1(C)OC2C3COC(CO)(O3)C(O)C2O1 (stereo not drawn) [sedoisoprosan, isopropylidene sedoheptulosan]
mitogenic activity of ConA and LPS (lymphocytes): enhance | transformation of lymphocytes (lymphocytes): promote | secretion of HBsAg and HBeAg (HBsAg and HBeAg): inhibit | activity of ACP and TNE [1]: enhance | immune system [1]: regulate | HBV-DNA levels, dose-effect relationship (hepatitis B virus; 200, 400, 800 mg, after 12 weeks' treatment): tended to decrease more as the doses increased | The 12th Week Decrease Values of lg(HBV-DNA), mean ± SD (hepatitis B virus; high dose group (800 mg sedoisoprosan), 16 cases): 0.96 ± 1.41 | Biochemical Response Rates (hepatitis B virus; [3]): 18.75% | Combined Response Rates (hepatitis B virus; [3]): 6.25% | HBeAg Negative Conversion Rates (hepatitis B virus; [3]): 6.25% | Virologic Response Rate (hepatitis B virus; high dose group (800 mg sedoisoprosan), the 4th week, 16 cases): 0.00% | Virologic Response Rate (hepatitis B virus; high dose group (800 mg sedoisoprosan), the 8th week, 16 cases): 12.50% | Virologic Response Rate (hepatitis B virus; high dose group (800 mg sedoisoprosan), the 12th week, 16 cases): 18.75% | cases of HBeAg negative conversion (hepatitis B virus; [4]): one | decrease values of lg(HBV-DNA), comparison within the group (hepatitis B virus; [4]): significant differences | effect on hepatitis B virus (conclusion of the clinical trials) (hepatitis B virus; human HBeAg positive chronic hepatitis B): effectively inhibit hepatitis B virus | The 12th Week Decrease Values of lg(HBV-DNA), mean ± SD (hepatitis B virus; low dose group (200 mg sedoisoprosan with 600 mg mannite), 13 cases): 0.52 ± 1.28 | Biochemical Response Rates (hepatitis B virus; [5]): 6.25% | Combined Response Rates (hepatitis B virus; [5]): 0% | HBeAg Negative Conversion Rates (hepatitis B virus; [5]): 0% | Virologic Response Rate (hepatitis B virus; low dose group (200 mg sedoisoprosan with 600 mg mannite), the 4th week, 13 cases): 15.38% | Virologic Response Rate (hepatitis B virus; low dose group (200 mg sedoisoprosan with 600 mg mannite), the 8th week, 13 cases): 15.38% | Virologic Response Rate (hepatitis B virus; low dose group (200 mg sedoisoprosan with 600 mg mannite), the 12th week, 13 cases): 15.38% | The 12th Week Decrease Values of lg(HBV-DNA), mean ± SD (hepatitis B virus; median dose group (400 mg sedoisoprosan with 400 mg mannite), 14 cases): 0.40 ± 0.90 | Biochemical Response Rates (hepatitis B virus; [6]): 12.50% | Combined Response Rates (hepatitis B virus; [6]): 0% | HBeAg Negative Conversion Rates (hepatitis B virus; [6]): 0% | Virologic Response Rate (hepatitis B virus; median dose group (400 mg sedoisoprosan with 400 mg mannite), the 4th week, 14 cases): 0.00% | Virologic Response Rate (hepatitis B virus; median dose group (400 mg sedoisoprosan with 400 mg mannite), the 8th week, 14 cases): 0.00% | Virologic Response Rate (hepatitis B virus; median dose group (400 mg sedoisoprosan with 400 mg mannite), the 12th week, 14 cases): 14.29% | decrease values of lg(HBV-DNA), comparison within the group (hepatitis B virus; median dose group and low dose group, after 12 weeks' treatment): no significant differences | DHBV-DNA level ([2]; animal experiments): reduce | serum DHBV-DNA levels ([2]; ducks infected with hepatitis B virus, intraperitoneal 200 mg/kg or 100 mg/kg twice a day for 14 days, seventh and fourteenth day): obviously decreased
